Experiments:
[1] = system: Pyricularia oryzae; type: in vivo; conditions: 200 ppm spray on rice (Koshihikari, 3 leaf stage), inoculated next day; lesion numbers on third leaves after 7 days in green house, graded by Table 5
[2] = system: Colletotrichum lagenarium; conditions: 200 ppm spray on cucumber (3 leaf stage), inoculated next day; lesion numbers on first and second leaves after 7 days in green house, graded by Table 5

Compound | Evaluation (effect for rice blast) [1] | Evaluation (effect for cucumber anthracnose) [2]
COc1ccc(C(=O)NCc2cc(/C=C/C(C)C)no2)cc1 | 4 (1˜5) | 4 (1˜5)
O=C(NCc1cc(Cc2ccccc2)no1)OC1CCCCC1 | 4 (1˜5) | –
CC(C)c1cc(CNC(=O)Oc2ccccc2)on1 [I-4] | 5 (0) | 5 (0)
O=C(NCc1cc(C2CCCCC2)no1)Oc1ccccc1 [I-6, phenyl[(3-cyclohexyl-5-isoxazolyl)methyl]carbamate] | 5 (0) | 5 (0)
CC(C)Cc1cc(CNC(=O)Oc2ccccc2)on1 [I-8, phenyl [(3-isobutyl-5-isoxazolyl)methyl]carbamate] | 3 (6˜10) | 3 (6˜10)
Cc1ccc(-c2cc(CNC(=O)Oc3ccccc3)on2)cc1 [I-25, phenyl{[3-(4-tolyl)-5-isoxazolyl)methyl]carbamate] | 5 (0) | –
COc1ccc(-c2cc(CNC(=O)Oc3ccccc3)on2)cc1 [I-26, phenyl{[3-(4-methoxyphenyl)-5-isoxazolyl]methyl}carbamate] | 5 (0) | 5 (0)
O=C(NCc1cc(-c2ccc(F)cc2)no1)Oc1ccccc1 [I-27, phenyl{[3-(4-fluorophenyl)-5-isoxazolyl)methyl]carbamate] | 5 (0) | 5 (0)
O=C(NCc1cc(-c2ccccc2Cl)no1)Oc1ccccc1 [I-28, phenyl{[3-(2-chlorophenyl)-5-isoxazolyl]methyl}carbamate] | 4 (1˜5) | 5 (0)
O=C(NCc1cc(-c2cccc(Cl)c2)no1)Oc1ccccc1 [I-29, phenyl{[3-(3-chlorophenyl)-5-isoxazolyl)methyl]carbamate] | 5 (0) | 5 (0)
O=C(NCc1cc(-c2ccc(Cl)cc2)no1)Oc1ccccc1 [I-30, phenyl{[3-(4-chlorophenyl)-5-isoxazolyl)methyl]carbamate] | 5 (0) | 5 (0)
O=C(NCc1cc(-c2ccccn2)no1)Oc1ccccc1 [I-31, phenyl{[3-(2-pyrizyl)-5-isoxazolyl]methyl}carbamate] | 4 (1˜5) | –
O=C(NCc1cc(-c2cccs2)no1)Oc1ccccc1 [I-32, phenyl{[3-(2-thienyl)-5-isoxazolyl)methyl]carbamate] | 5 (0) | –
O=C(NCc1cc(-c2ccco2)no1)Oc1ccccc1 [I-33, phenyl{[3-(2-furyl)-5-isoxazolyl)methyl]carbamate] | 5 (0) | 5 (0)
O=C(NCc1cc(Cc2ccccc2)no1)Oc1ccccc1 [I-38, phenyl[(3-benzyl-5-isoxazolyl)methyl]carbamate] | 5 (0) | 5 (0)
O=C(NCc1cc(-c2ccccc2)no1)OCc1ccccc1 [I-41, benzyl [(3-phenyl-5-isoxazolyl)methyl]carbamate] | 3 (6˜10) | 4 (1˜5)
CC(C)(NC(=O)NCc1cc(-c2ccccc2)no1)c1ccccc1 [I-45] | 4 (1˜5) | 4 (1˜5)
CC(C)c1cc(CNC(=O)C(C)c2ccccc2)on1 (stereo not shown) [I-47, N-[(3-isopropyl-5-isoxazolyl)methyl]-2-phenylpropanamide] | 4 (1˜5) | 4 (1˜5)
O=C(Cc1ccccc1)NCc1cc(-c2ccccc2)no1 [I-48, N-[(3-phenyl-5-isoxazolyl)methyl]-2-phenylethanamide] | 4 (1˜5) | –

Compound | Evaluation (effect for rice blast) [1] | Evaluation (effect for cucumber anthracnose) [2]
O=C(NCc1cc(-c2ccccc2)no1)C(Cl)c1ccccc1 (stereo not shown) [I-49, N-[(3-phenyl-5-isoxazolyl)methyl]-2-chloro-2-phenylethanamide] | 3 (6˜10) | –
CC(C)c1cc(CNC(=O)Cc2ccccc2)on1 [I-63, N-[(3-isopropyl-5-isoxazolyl)methyl]phenylacetamide] | 2 (11˜20) | –
CC(C)Cc1cc(CNC(=O)Cc2ccccc2)on1 [I-64, N-[(3-isobutyl-5-isoxazolyl)methyl]phenylacetamide] | 2 (11˜20) | 3 (6˜10)
Cc1ccc(-c2cc(CNC(=O)Nc3ccccc3)on2)cc1 [II-2, 3-{[3-(4-tolyl)-5-isoxazolyl]methyl}-1-phenyl urea] | 5 (0) | –
CC(C)c1cc(CNC(=O)Nc2ccccc2)on1 [II-3, 1-[(3-isopropyl-5-isoxazolyl)methyl]-3-phenylurea] | 3 (6˜10) | –
O=C(NCc1cc(-c2ccccc2)no1)Nc1cccc(Cl)c1 [II-49, 1-[(3-phenyl-5-isoxazolyl)methyl]-3-(3-chlorophenyl)urea] | 4 (1˜5) | –
O=C(NCc1cc(-c2ccccc2)no1)Nc1ccc(Cl)cc1 [II-50, 1-[(3-phenyl-5-isoxazolyl)methyl]-3-(4-chlorophenyl)urea] | 5 (0) | –
O=C(NCc1cc(-c2ccccc2)no1)Nc1ccccn1 [II-99, 1-[(3-phenyl-5-isoxazolyl)methyl]-3-(2-pyridyl)urea] | 3 (6˜10) | –
CC(=O)Nc1ccc(-c2cc(CNC(=O)c3ccc(C)cc3)on2)cc1 [III-57, N-{[3-(4-acetamidophenyl)-5-isoxazolyl]methyl}-4-methylbenzamide] | 2 (11˜20) | –
Cc1ccc(-c2cc(CNC(=O)N3CCCCC3)on2)cc1 [III-203] | 2 (11˜20) | –
CC1C(Cl)(Cl)C1(C)C(=O)NCc1cc(-c2ccccc2)no1 (stereo not shown) [III-212] | 2 (11˜20) | –
CC(NC(=O)C1(C)C(C)C1(Cl)Cl)c1cc(-c2ccccc2)no1 (stereo not shown) [III-213, N-[1-(3-phenyl-5-isoxazolyl)ethyl]-2,2-dichloro-1,3-dimethylcyclopropanecarboxamide] | 3 (6˜10) | –
CCc1ccc(C(=O)NCc2cc(Cc3ccccc3)no2)cc1 [IV-6, N-[(3-benzyl-5-isoxazolyl)methyl]-4-ethylbenzamide] | 5 (0) | –
CS(=O)(=O)c1ccc(C(=O)NCc2cc(Cc3ccccc3)no2)cc1 [IV-8, N-[(3-benzyl-5-isoxazolyl)methyl]-4-methanesulfonylbenzamide] | 3 (6˜10) | –
COc1ccc(C(=O)NCc2cc(COc3ccccc3C#N)no2)cc1 [IV-51, N-{[3-(2-cyanophenyl)oxymethyl-5-isoxazolyl]methyl}-4-methoxybenzamide] | 2 (11˜20) | –
COc1ccc(C(=O)NCc2cc(COc3cccnc3)no2)cc1 [IV-91, N-{[3-(3-pyridyl)oxymethyl-5-isoxazolyl]methyl}-4-methoxybenzamide] | 3 (6˜10) | –
COc1ccc(C(=O)NCc2cc(C(=O)c3ccccc3)no2)cc1 [IV-98, N-[(3-benzoyl-5-isoxazolyl)methyl]-4-methoxybenzamide] | 2 (11˜20) | –
COc1ccc(C(=O)NCc2cc(C(=O)Nc3ccc(Cl)cc3)no2)cc1 [IV-106, N-{[3-(4-chlorophenyl)aminocarbonyl-5-isoxazolyl]methyl}-4-methoxybenzamide] | 2 (11˜20) | –

— US20050171358A1 (priority 2002, published 2005)
